Results: patent US6696479B2, “Crystalline forms” (Ciba Specialty Chemicals Corporation, priority 2001, dated 2004)
One block for each compound: values may come before it.

Tests used:
[1] = Estimated water content of crystalline forms obtained by equilibration under defined relative humidity; type: physicochemical
Text: Forms C, D, E and F can be prepared according to a process, wherein Fluvastatin sodium is exposed to an atmosphere having a defined relative humidity. […] As a rule the estimated water content can range from 3-6%. […] As a rule the estimated water content can range from 6-12%. […] As a rule the estimated water content can range from 15-22%. […] As a rule the estimated water content can range from 24-32%.

[2] = compared with Form A or the amorphous form; from WO-A-97/49681 / U.S. Pat. No. 6,124,340; cited from earlier work
[3] = Water content of highly crystalline Form A (Karl Fisher titration); type: physicochemical
Protocol: Highly crystalline Fluvastatin sodium Form A can generally be prepared by equilibration of an aqueous suspension or solution of Fluvastatin sodium for several hours at temperatures from about 0 to 10° C. and subsequent drying by lyophilization. The process can be accelerated by additional seeding with crystals of Form A during the equilibration period. A characteristic X-ray powder diffraction pattern for highly crystalline Form A is depicted in FIG. 1. The crystallinity of this material is estimated by the powder diffraction spectrum to be more than 90%. The estimated water content is below 2%.
A 30 ml aqueous solution of 30° C. containing ca. 3 grams of Fluvastatin sodium was cooled to about 2° C. and was allowed to stand at this temperature for 6 hours. Subsequently, the off-white coloured suspension was frozen using a dry-ice bath and dried by lyophilization for 24 hours. […] From its X-ray powder diffraction pattern it was estimated that the crystallinity is more than 90%, see FIG. 1.

estimated water content ([1]; equilibration under relative humidity from about 15 to 25% (for example 6 to 24 hours)): 3-6%
Compound: CC(C)n1c(/C=C/[C@H](O)C[C@H](O)CC(=O)[O-])c(-c2ccc(F)cc2)c2ccccc21.[Na+] (racemic) [Form C, (±)-7-(3-(4-fluorophenyl)-1-(1-methylethyl)-1H-indol-2-yl)-3,5-dihydroxy-6-heptenoic acid monosodium salt]

estimated water content ([1]; equilibration under relative humidity from about 30 to 50% (for example 6 to 24 hours)): 6-12%
Compound: CC(C)n1c(/C=C/[C@H](O)C[C@H](O)CC(=O)[O-])c(-c2ccc(F)cc2)c2ccccc21.[Na+] (racemic) [Form D, (±)-7-(3-(4-fluorophenyl)-1-(1-methylethyl)-1H-indol-2-yl)-3,5-dihydroxy-6-heptenoic acid monosodium salt]

estimated water content ([1]; equilibration under relative humidity from about 80 to 90% (for example several days)): 24-32%
Compound: CC(C)n1c(/C=C/[C@H](O)C[C@H](O)CC(=O)[O-])c(-c2ccc(F)cc2)c2ccccc21.[Na+] (racemic) [Form F, (±)-7-(3-(4-fluorophenyl)-1-(1-methylethyl)-1H-indol-2-yl)-3,5-dihydroxy-6-heptenoic acid monosodium salt]

Compound: CC(C)n1c(/C=C/[C@H](O)C[C@H](O)CC(=O)[O-])c(-c2ccc(F)cc2)c2ccccc21.[Na+] (racemic) [Form B, (±)-7-(3-(4-fluorophenyl)-1-(1-methylethyl)-1H-indol-2-yl)-3,5-dihydroxy-6-heptenoic acid monosodium salt]
hygroscopicity [2]: less hygroscopic than Form A or the amorphous form

water content ([3]; Karl Fisher titration, Example 1, lyophilized 24 hours): below 2% | estimated water content ([3]; aqueous suspension or solution equilibrated at about 0 to 10° C., then lyophilization): below 2%
Compound: CC(C)n1c(/C=C/[C@H](O)C[C@H](O)CC(=O)[O-])c(-c2ccc(F)cc2)c2ccccc21.[Na+] (racemic) [Form A, (±)-7-(3-(4-fluorophenyl)-1-(1-methylethyl)-1H-indol-2-yl)-3,5-dihydroxy-6-heptenoic acid monosodium salt]

estimated water content ([1]; equilibration under relative humidity from about 55 to 75% (for example several days)): 15-22%
Compound: CC(C)n1c(/C=C/[C@H](O)C[C@H](O)CC(=O)[O-])c(-c2ccc(F)cc2)c2ccccc21.[Na+] (racemic) [Form E, (±)-7-(3-(4-fluorophenyl)-1-(1-methylethyl)-1H-indol-2-yl)-3,5-dihydroxy-6-heptenoic acid monosodium salt]
